# Source: patent publication US20230146455A1, “TREATMENT OF INFLAMMATORY DISEASES WITH PEPTIDES AND PHARMACEUTICAL COMPOSITIONS” (Yuyu Pharma, Inc., priority 2020, published 2023)
# Several values for one entry are separate records, joined by “and”; a condition that tells them apart may be missing. Equal entries are not always repeated. Where a SMILES comes first, the peptide text is derived from it. [ ]: non-standard residue; d: D form. Hyp = O=C(O)[C@@H]1C[C@@H](O)CN1
# Columns and labels:
# Type in all cases: cell-based, human
# [1] = test system: CCL4/MIP-1 beta; assay: Example 8 main study Luminex, LPS hPBMCs: CCL4/MIP-1 beta
# Experimental: (§1) Human PBMCs were pretreated with YY-101, YDE-011, YDE-043 or reference compound; Xiidra® at various concentration (ranging from […] to 500 nM) for 2 h before stimulation. An equal volume of 0.5% DMSO was used as a vehicle control. Then, the cells were treated with LPS at 5 ug/ml, which was selected based on the pilot study. The supernatants from treated cells were harvested at 24 h and placed in a 96 well for Luminex cytokine & chemokine profiling using a Luminex 200 multiplex assay (Luminex; R&D system, USA).
# (§2) The main study arm with triplicate wells per group in a 24-well plate: • 1. Blank • 2. PBMC: 0.5% DMSO • 3. PBMC+LPS (5 ug/ml) • 4. PBMC+YY-101 500 nM • 5. PBMC+YY-101 50 nM • 6. PBMC+YY-101 5 nM • 7. PBMC+YY-101 0.5 nM • 8. PBMC+LPS (5 ug/ml)+Xiidra® 500 nM • 9. PBMC+LPS (5 ug/ml)+Xiidra® 50 nM • 10. PBMC+LPS (5 ug/ml)+Xiidra® 5 nM • 11. PBMC+LPS (5 ug/ml)+Xiidra® 0.5 nM • 12. PBMC+LPS (5 ug/ml)+Xiidra® 0.05 nM • 13. PBMC+LPS (5 ug/ml)+Xiidra® 0.005 nM • 14. PBMC+LPS (5 ug/ml)+YY-101 500 nM • 15. PBMC+LPS (5 ug/ml)+YY-101 50 nM • 16. PBMC+LPS (5 ug/ml)+YY-101 5 nM • 17. PBMC+LPS (5 ug/ml)+YY-101 0.5 nM • 18. PBMC+LPS (5 ug/ml)+YY-101 0.05 nM • 19. PBMC+LPS (5 ug/ml)+YY-101 0.005 nM • 20. PBMC+LPS (5 ug/ml)+YDE-011 500 nM • 21. PBMC+LPS (5 ug/ml)+YDE-011 50 nM • 22. PBMC+LPS (5 ug/ml)+YDE-011 5 nM • 23. PBMC+LPS (5 ug/ml)+YDE-011 0.5 nM • 24. PBMC+LPS (5 ug/ml)+YDE-011 0.05 nM • 25. PBMC+LPS (5 ug/ml)+YDE-011 0.005 nM • 26. PBMC+LPS (5 ug/ml)+YDE-043 500 nM • 27. PBMC+LPS (5 ug/ml)+YDE-043 50 nM • 28. PBMC+LPS (5 ug/ml)+YDE-043 5 nM • 29. PBMC+LPS (5 ug/ml)+YDE-043 0.5 nM • 30. PBMC+LPS (5 ug/ml)+YDE-043 0.05 nM • 31. PBMC+LPS (5 ug/ml)+YDE-043 0.005 nM
# (§3) Multiplex assay was used to measure 30 cytokines and chemokines. The 1:200 diluted cell supernatant and serial dilution of the standard were dispensed into a 96 well plate at 50 ul/well. Then, the pre-mixed cocktail of antibody-coated magnetic beads was dispensed at 50 ul/well and incubated at room temperature for 2 h in a horizontal orbital microplate shaker at 800±500 rpm. The beads were washed using a magnetic device to prevent loss. The biotin-antibody was dispensed in 50 ul of each well and incubated at room temperature for 1 h in a shaker at 800±500 rpm. After washing, streptavidin-PE was added at 50 ul/well and incubated at room temperature for 30 min in a shaker under the same conditions. Finally, after washing, wash buffer (100 ul/well) was added to the plate and incubated in a shaker for 2 min. The Luminex™ 200 setting were set according to the manufacturer's protocol. The data was calculated with a standard five-parameter logistic nonlinear regression analysis of the data (xPonent software 4.2, USA). Results were presented as concentration (ng/ml or pg/ml).
# [2] = test system: IL-1 alpha/IL-1F1; assay: Example 8 main study Luminex, LPS hPBMCs: IL-1 alpha/IL-1F1
# Experimental: as §1, §2, §3
# [3] = test system: Leptin; assay: Example 8 main study Luminex, LPS hPBMCs: Leptin; conditions: PBMC + LPS(5 ug/ml)
# Experimental: as §1, §2, §3
# [4] = PBMC + LPS(5 ug/ml) + test article 0.005 nM, Mean
# [5] = PBMC + LPS(5 ug/ml) + test article 0.005 nM, single replicates
# [6] = PBMC + LPS(5 ug/ml) + test article 0.05 nM, Mean
# [7] = PBMC + LPS(5 ug/ml) + test article 0.05 nM, single replicates
# [8] = PBMC + LPS(5 ug/ml) + test article 0.5 nM, Mean
# [9] = PBMC + LPS(5 ug/ml) + test article 0.5 nM, single replicates
# [10] = PBMC + LPS(5 ug/ml) + test article 5 nM, Mean
# [11] = PBMC + LPS(5 ug/ml) + test article 5 nM, single replicates
# [12] = PBMC + LPS(5 ug/ml) + test article 50 nM, Mean
# [13] = PBMC + LPS(5 ug/ml) + test article 50 nM, single replicates
# [14] = PBMC + LPS(5 ug/ml) + test article 500 nM, Mean
# [15] = PBMC + LPS(5 ug/ml) + test article 500 nM, single replicates
# [16] = PBMC + LPS(5 ug/ml) + test article 0.005 nM, individual replicates
# [17] = PBMC + LPS(5 ug/ml) + test article 0.05 nM, individual replicates
# [18] = PBMC + LPS(5 ug/ml) + test article 0.5 nM, individual replicates
# [19] = PBMC + LPS(5 ug/ml) + test article 5 nM, individual replicates
# [20] = PBMC + LPS(5 ug/ml) + test article 50 nM, individual replicates
# [21] = PBMC + LPS(5 ug/ml) + test article 500 nM, individual replicates
smiles,measurement,setting,value
CC(C)C[C@H](NC(=O)[C@H](CCC(N)=O)NC(=O)CNC(=O)[C@@H]1C[C@@H](O)CN1)C(=O)NCC(=O)O [YDE-043] (H-[Hyp]GQLG-OH; N-terminus and C-terminus assumed),CCL4/MIP-1 beta Concentration,[1]; [4],24223.5 pg/mL
same,CCL4/MIP-1 beta MFI,[1]; [4],13.7
same,CCL4/MIP-1 beta Concentration,[1]; [5],22956.0 pg/mL and 30013.2 pg/mL and 19701.2 pg/mL
same,CCL4/MIP-1 beta MFI,[1]; [5],13.0 and 16.0 and 12.0
same,CCL4/MIP-1 beta Concentration,[1]; [6],19701.2 pg/mL
same,CCL4/MIP-1 beta MFI,[1]; [6],12.0
same,CCL4/MIP-1 beta Concentration,[1]; [7],19701.2 pg/mL
same,CCL4/MIP-1 beta MFI,[1]; [7],12.0
same,CCL4/MIP-1 beta Concentration,[1]; [8],21871.1 pg/mL
same,CCL4/MIP-1 beta MFI,[1]; [8],12.7
same,CCL4/MIP-1 beta Concentration,[1]; [9],22956.0 pg/ml (2×) and 19701.2 pg/ml
same,CCL4/MIP-1 beta MFI,[1]; [9],13.0 (2×) and 12.0
same,CCL4/MIP-1 beta Concentration,[1]; [10],20786.2 pg/mL
same,CCL4/MIP-1 beta MFI,[1]; [10],12.3
same,CCL4/MIP-1 beta Concentration,[1]; [11],19701.2 pg/ml (2×) and 22956.0 pg/ml
same,CCL4/MIP-1 beta MFI,[1]; [11],12.0 (2×) and 13.0
same,CCL4/MIP-1 beta Concentration,[1]; [12],21205.1 pg/mL
same,CCL4/MIP-1 beta MFI,[1]; [12],12.5
same,CCL4/MIP-1 beta Concentration,[1]; [13],22956.0 pg/ml (2×) and 17703.4 pg/ml
same,CCL4/MIP-1 beta MFI,[1]; [13],13.0 (2×) and 11.5
same,CCL4/MIP-1 beta Concentration,[1]; [14],22762.3 pg/mL
same,CCL4/MIP-1 beta MFI,[1]; [14],13.0
same,CCL4/MIP-1 beta Concentration,[1]; [15],25629.7 pg/mL and 22956.0 pg/mL and 19701.2 pg/mL
same,CCL4/MIP-1 beta MFI,[1]; [15],14.0 and 13.0 and 12.0
same,LPS-induced CCL-4 (in words),"[1]; at as low as 5 μM, LPS 5 ug/mL 24 hrs",significantly reduced
same,LPS-induced IL-1a levels (in words),[2]; LPS 5 ug/mL 24 hrs,significantly lowered
same,IL-1 alpha/IL-1F1 Concentration,[2]; [4],489.6 pg/mL
same,IL-1 alpha/IL-1F1 MFI,[2]; [4],30.5
same,IL-1 alpha/IL-1F1 Concentration,[2]; [16],383.2 pg/mL and 490.5 pg/mL and 595.1 pg/mL
same,IL-1 alpha/IL-1F1 MFI,[2]; [16],27.0 and 30.5 and 34.0
same,IL-1 alpha/IL-1F1 Concentration,[2]; [6],330.9 pg/mL
same,IL-1 alpha/IL-1F1 MFI,[2]; [6],25.3
same,IL-1 alpha/IL-1F1 Concentration,[2]; [17],351.9 pg/ml and 320.3 pg/ml (2×)
same,IL-1 alpha/IL-1F1 MFI,[2]; [17],26.0 and 25.0 (2×)
same,IL-1 alpha/IL-1F1 Concentration,[2]; [8],351.9 pg/mL
same,IL-1 alpha/IL-1F1 MFI,[2]; [8],26.0
same,IL-1 alpha/IL-1F1 Concentration,[2]; [18],351.9 pg/mL and 367.6 pg/mL and 336.2 pg/mL
same,IL-1 alpha/IL-1F1 MFI,[2]; [18],26.0 and 26.5 and 25.5
same,IL-1 alpha/IL-1F1 Concentration,[2]; [10],465.1 pg/mL
same,IL-1 alpha/IL-1F1 MFI,[2]; [10],29.7
same,IL-1 alpha/IL-1F1 Concentration,[2]; [19],505.6 pg/ml and 444.9 pg/ml (2×)
same,IL-1 alpha/IL-1F1 MFI,[2]; [19],31.0 and 29.0 (2×)
same,IL-1 alpha/IL-1F1 Concentration,[2]; [12],434.5 pg/mL
same,IL-1 alpha/IL-1F1 MFI,[2]; [12],28.7
same,IL-1 alpha/IL-1F1 Concentration,[2]; [20],475.3 pg/mL and 444.9 pg/mL and 383.2 pg/mL
same,IL-1 alpha/IL-1F1 MFI,[2]; [20],30.0 and 29.0 and 27.0
same,IL-1 alpha/IL-1F1 Concentration,[2]; [14],424.2 pg/mL
same,IL-1 alpha/IL-1F1 MFI,[2]; [14],28.3
same,IL-1 alpha/IL-1F1 Concentration,[2]; [21],475.3 pg/mL and 414.2 pg/mL and 383.2 pg/mL
same,IL-1 alpha/IL-1F1 MFI,[2]; [21],30.0 and 28.0 and 27.0
same,"Leptin Concentration (pg/ml), Mean",[3]; test article 0.005 nM,19724.6 pg/mL
same,"Leptin Concentration (pg/ml), single replicates",[3]; test article 0.005 nM,18547.4 pg/ml (2×) and 22079.2 pg/ml
same,"Leptin Concentration (pg/ml), Mean",[3]; test article 0.05 nM,10481.4 pg/mL
same,"Leptin Concentration (pg/ml), single replicates",[3]; test article 0.05 nM,10481.4 pg/ml and <98.95 pg/ml (2×)
same,"Leptin Concentration (pg/ml), Mean",[3]; test article 0.5 nM,15646.1 pg/mL
same,"Leptin Concentration (pg/ml), single replicates",[3]; test article 0.5 nM,12493.0 pg/ml and 17222.7 pg/ml (2×)
same,"Leptin Concentration (pg/ml), Mean",[3]; test article 5 nM,15505.7 pg/mL
same,"Leptin Concentration (pg/ml), single replicates",[3]; test article 5 nM,19789.4 pg/mL and 12493.0 pg/mL and 14234.9 pg/mL
same,"Leptin Concentration (pg/ml), Mean",[3]; test article 50 nM,18458.0 pg/mL
same,"Leptin Concentration (pg/ml), single replicates",[3]; test article 50 nM,15795.3 pg/ml and 19789.4 pg/ml (2×)
same,"Leptin Concentration (pg/ml), Mean",[3]; test article 500 nM,10678.9 pg/mL
same,"Leptin Concentration (pg/ml), single replicates",[3]; test article 500 nM,17222.7 pg/mL and 4332.6 pg/mL and 10481.4 pg/mL
